Experimental data as given in patent US20160324981A1, “LIVER X RECEPTOR AGONISTS AND USES THEREOF” (The California Institute for Biomedical Research, priority 2015, published 2016).

Experiments:
LXR-α = biological target: T1, LXR-α (Homo sapiens, UniProt Q13133); experiment: LanthaScreen TR-FRET LXR alpha Coactivator binding assay; details: EC50 (AC50) from fitted curve, read-out: binding affinity for LXR-α
T1 construct: purchased Life Technologies PV4655
T1 sequence (Q13133 209-447 limits assumed): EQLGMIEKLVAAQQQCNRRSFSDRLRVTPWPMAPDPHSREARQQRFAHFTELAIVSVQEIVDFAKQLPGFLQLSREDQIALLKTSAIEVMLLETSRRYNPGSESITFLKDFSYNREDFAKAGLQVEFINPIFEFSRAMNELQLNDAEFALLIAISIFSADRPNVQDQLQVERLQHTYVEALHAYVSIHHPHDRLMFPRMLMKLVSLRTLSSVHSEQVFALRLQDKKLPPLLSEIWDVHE

LXR-β = biological target: T2, LXR-β (Homo sapiens, UniProt P55055); experiment: LanthaScreen TR-FRET LXR beta Coactivator binding assay; details: EC50 (AC50) from fitted curve, read-out: binding affinity for LXR-β
T2 construct: purchased Life Technologies PV4658
T2 sequence (P55055 222-460 limits assumed): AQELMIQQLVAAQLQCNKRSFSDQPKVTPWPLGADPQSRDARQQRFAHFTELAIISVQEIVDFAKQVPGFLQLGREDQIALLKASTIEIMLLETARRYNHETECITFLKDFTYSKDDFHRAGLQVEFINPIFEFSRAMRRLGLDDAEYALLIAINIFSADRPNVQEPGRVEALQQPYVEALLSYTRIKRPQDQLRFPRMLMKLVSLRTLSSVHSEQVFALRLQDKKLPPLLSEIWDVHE

[1] = tested on: LXR-α transcriptional response element; experiment: In vitro LXR transactivation (luciferase reporter) assay in THP-1 cells; assay type: cell-based; details: Homo sapiens, 24 hours, read-out: EC50 (LXR agonist activity)
Experimental: (§1) Next, the in vitro activity of the anti-CD11a IgGX-CatB-LXR agonist was evaluated using an LXR-driven luciferase stably incorporated into THP-1 and HepG2 cells. This vector encodes the firefly luciferase reporter gene under the control of a CMV promoter and tandem repeats of the LXR-α transcriptional response element. […] Cells were then treated with ONE-Glo and luminescence was read on an Envision plate reader.
(§2) THP-1 cells and HepG2 cells (ATCC) were seeded at 0.6×10^6 cells/well in Opti-MEM media in a 6-well plate and allowed to incubate overnight at 37° C. Afterwards, 50 μL of Cignal lenti LXR-α luciferase reporter (cat no: CLS-7041L, Qiagen) was added to the wells with gentle mixing. After 48 h, the media was changed to completed growth media that was supplemented with 1 μg/mL puromycin. After 24 h, positively transfected cells were cultured for one week in puromycin-containing media.

[2] = tested on: LXR-α transcriptional response element; experiment: In vitro LXR transactivation (luciferase reporter) assay in HepG2 cells; assay type: cell-based; details: 24 hours, presence or absence of 10% human AB serum
Experimental: as §1, §2

[3] = biological target: T3, CD11a (alpha-chain component of lymphocyte function-associated antigen 1, LFA-1) on human THP-1 … (human, UniProt P20701 26-1170); experiment: flow cytometry on THP-1 cells in the presence of Fc block
T3 construct: whole, on cells; Endogenous on THP-1 cells, where it stands with its partner chain in LFA-1; also called LFA-1 alpha chain
Experimental: Cells were incubated either with 2 nM of the dye-conjugated antibodies or with increasing concentrations of antibody (0-50 nM, right) for 1 h at 4° C. in the presence of Fc block (Human Fc block, BD Biosciences).
Because monocytes/macrophages have Fcγ receptors, the binding in the presence of an Fc blocking reagent was also examined (BD biosciences). […] Furthermore, binding of anti-Her2 to THP-1 cells at different concentrations, with or without Fc block treatment was performed (FIG. 9B).

T3 sequence (P20701 26-1170): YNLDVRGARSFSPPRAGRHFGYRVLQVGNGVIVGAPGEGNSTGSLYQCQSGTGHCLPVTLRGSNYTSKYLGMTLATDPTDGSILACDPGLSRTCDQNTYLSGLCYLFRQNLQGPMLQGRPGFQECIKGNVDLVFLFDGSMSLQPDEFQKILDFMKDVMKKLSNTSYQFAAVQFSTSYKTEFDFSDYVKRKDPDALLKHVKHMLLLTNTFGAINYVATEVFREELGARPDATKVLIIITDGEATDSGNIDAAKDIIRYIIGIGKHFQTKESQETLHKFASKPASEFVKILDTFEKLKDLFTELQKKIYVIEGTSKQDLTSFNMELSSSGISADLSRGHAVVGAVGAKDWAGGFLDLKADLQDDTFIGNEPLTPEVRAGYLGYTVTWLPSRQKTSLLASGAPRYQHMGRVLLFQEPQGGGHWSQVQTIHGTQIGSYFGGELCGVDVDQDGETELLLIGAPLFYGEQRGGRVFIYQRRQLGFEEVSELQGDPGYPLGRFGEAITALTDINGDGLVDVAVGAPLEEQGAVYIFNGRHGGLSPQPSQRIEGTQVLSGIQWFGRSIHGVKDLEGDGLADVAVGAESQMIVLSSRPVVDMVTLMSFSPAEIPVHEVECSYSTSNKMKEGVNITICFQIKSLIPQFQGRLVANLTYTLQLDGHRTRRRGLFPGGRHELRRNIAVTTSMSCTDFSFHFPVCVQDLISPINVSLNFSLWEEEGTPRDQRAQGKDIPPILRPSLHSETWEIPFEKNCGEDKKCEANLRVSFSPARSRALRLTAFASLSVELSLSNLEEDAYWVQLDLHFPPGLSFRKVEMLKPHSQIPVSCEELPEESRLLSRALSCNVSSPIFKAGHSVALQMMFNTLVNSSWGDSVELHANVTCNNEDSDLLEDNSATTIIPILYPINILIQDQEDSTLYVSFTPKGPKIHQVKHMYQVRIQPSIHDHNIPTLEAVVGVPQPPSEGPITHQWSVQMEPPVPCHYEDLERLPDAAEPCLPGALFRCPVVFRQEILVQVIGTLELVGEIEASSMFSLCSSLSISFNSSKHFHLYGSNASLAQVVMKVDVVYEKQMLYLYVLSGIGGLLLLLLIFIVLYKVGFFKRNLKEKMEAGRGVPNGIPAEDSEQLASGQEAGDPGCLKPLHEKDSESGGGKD

Row | Molecule | EC50 (LXR-α) [nM] | EC50 (LXR-β) [nM] | EC50 [1] [nM] | LXR activation in HepG2 cells [2] | Kd [3] [nM]
1 | O=C(O)Cc1cccc(OCCCN(Cc2cccc(C(F)(F)F)c2Cl)CC(c2ccccc2)c2ccccc2)c1 [compound 1, GW3965, reference compound] | 1.1 | 0.5 |  |  | 
2 | O=S(=O)(c1ccccc1)N(CC(F)(F)F)c1ccc(C(O)(C(F)(F)F)C(F)(F)F)cc1 [compound 2, T0901317] |  |  | 79 ± 1.1 | equipotent in these cells relative to THP-1 | 
3 | CCc1cnc2c(C(F)(F)F)cccc2c1-c1cccc(Oc2cccc(S(=O)(=O)N(C)CCN)c2)c1 [compound 3] | 1.5 | 12 |  |  | 
4 | anti-CD11a A122pAcF IgG conjugated to Alexa Fluor 488 (anti-CD11a IgGX-AF488) (antibody, V domains shown, para-acetylphenylalanine (pAcF) at position A122 (the X in SEQ ID NO 10), oxime-linked to aminooxy-Alexa Fluor 488, Humanized monoclonal anti-CD11a IgG made in CHO cells; The unnatural amino acid pAcF sits at heavy chain position A122; also called anti-CD11a pAcF IgGX) VH: EVQLVESGGGLVQPGGSLRLSCAASGYSFTGHWMNWVRQAPGKGLEWVGMIHPSDSETRYNQKFKDRFTISVDKSKNTLYLQMNSLRAEDTAVYYCARGIYFYGTTYFDYWGQGTLVTVSS VL: DIQMTQSPSSLSASVGDRVTITCRASKTISKYLAWYQQKPGKAPKLLIYSGSTLQSGVPSRFSGSGSGTDFTLTISSLQPEDFATYYCQQHNEYPLTFGQGTKVEIKR |  |  |  |  | ~0.5
